Assay results taken from publication PMC11492426, “Design, synthesis, and biological evaluation of novel quinoline-based EGFR/HER-2 dual-target inhibitors as potential anti-tumor agents” (RSC Advances, 2024).

Key:
[1] = tested on: Panc-1 pancreatic cancer cell line; experiment: Antiproliferative assay, Panc-1; type: cell-based; conditions: Homo sapiens; Panc-1 pancreatic cancer cells; read-out: Antiproliferative activity IC50 ± SEM, Panc-1
[2] = Cell viability assay (MTT) on MCF-10A normal cells; type: cell-based; conditions: human, MCF-10A mammary gland epithelial normal cells, MCF-10A cells, four-day incubation
Experimental: The impact of compounds 3a–h and 5a–d on cell viability was evaluated using the human mammary (MCF-10A) gland epithelium normal cell line. The MTT assay was used to evaluate the cell viability of 3a–h and 5a–d after a four-day incubation period on MCF-10A cells.[46] Refer to Appendix A for more details.
The effect of new compounds 3a–h and 5a–d on cell viability was evaluated using the MCF-10A (human mammary gland epithelium) normal cell line.
4.2. Biological evaluation
4.2.1 Cell Viability assay (MTT assay)
MTT assay was performed to investigate the effect of the synthesized compounds on mammary epithelial cells (MCF-10A). The cells were propagated in medium consisting of Ham's F-12 medium/ Dulbecco's modified Eagle's medium (DMEM) (1:1) supplemented with 10% foetal calf serum, 2 mM glutamine, insulin (10 μg/mL), hydrocortisone (500 ng/mL) and epidermal growth factor (20 ng/mL). Trypsin ethylenediamine tetra acetic acid (EDTA) was used to passage the cells after every 2-3 days. 96-well flat-bottomed cell culture plates were used to seed the cells at a density of 10^4 cells mL-1. The medium was aspirated from all the wells of culture plates after 24 h followed by the addition of synthesized compounds (in 200 μL medium to yield a final concentration of 0.1% (v/v) dimethyl sulfoxide) into individual wells of the plates. Four wells were designated to a single compound. The plates were allowed to incubate at 37°C for 96 h. Afterwards, the medium was aspirated and 3-[4,5-dimethylthiazol-2-yl]-2,5-diphenyltetrazolium bromide (MTT) (0.4 mg/mL) in medium was added to each well and subsequently incubated for 3 h. The medium was aspirated and 150 μL dimethyl sulfoxide (DMSO) was added to each well. The plates were vortexed followed by the measurement of absorbance at 540 nm on a microplate reader. The results were presented as inhibition (%) of proliferation in contrast to controls comprising 0.1% DMSO.

[3] = tested on: A-549 lung cancer cell line; experiment: Antiproliferative assay, A-549; type: cell-based; conditions: Homo sapiens, A549; A-549 lung cancer cells; read-out: Antiproliferative activity IC50 ± SEM, A-549
[4] = tested on: MCF-7 breast cancer cell line; experiment: Antiproliferative assay, MCF-7; type: cell-based; conditions: Homo sapiens, MCF7; MCF-7 breast cancer cells; read-out: Antiproliferative activity IC50 ± SEM, MCF-7
[5] = tested on: four human cancer cell lines (A-549, MCF-7, Panc-1, HT-29); experiment: Antiproliferative assay, average over four cancer cell lines; type: cell-based; conditions: average IC50 over the four cancer cell lines
[6] = tested on: HT-29 colon cancer cell line; experiment: Antiproliferative assay, HT-29; type: cell-based; conditions: Homo sapiens; HT-29 colon cancer cells; read-out: Antiproliferative activity IC50 ± SEM, HT-29
Bax = Bax activation assay in MCF-7 cells; type: cell-based, human
Experimental: This lysate was diluted in Standard Diluent Buffer over the range of the assay and measured for human active caspase-8 content. (Cells are Plated in a density of 1.2 – 1.8 × 10,000 cells/well in a volume of 100µl complete growth medium + 100 ul of the tested compound per well in a 96-well plate for 24 hours before the enzyme assay for […].). […]
4.2.7. Bax activation assay
Bring all reagents, except the human Bax-α Standard, to room temperature for at least 30 minutes prior to opening. The human Bax-α Standard solution should not be left at room temperature for more than 10 minutes. All standards, controls and samples should be run in duplicate. Refer to the Assay Layout Sheet to determine the number of wells to be used and put any remaining wells with the desiccant back into the pouch and seal the ziploc. Store unused wells at 4 °C. Pipet 100 μL of Assay Buffer into the S0 (0 pg/mL standard) wells. Pipet 100 μL of Standards #1 through #6 into the appropriate wells. Pipet 100 μL of the Samples into the appropriate wells. Tap the plate gently to mix the contents. Seal the plate and incubate at room temperature on a plate shaker for 1 hour at ~500 rpm. Empty the contents of the wells and wash by adding 400 μL of wash solution to every well.
Repeat the wash 4 more times for a total of 5 washes. After the final wash, empty or aspirate the wells and firmly tap the plate on a lint free paper towel to remove any remaining wash buffer. Pipet 100 μL of yellow Antibody into each well, except the Blank. Seal the plate and incubate at room temperature on a plate shaker for 1 hour at ~500 rpm. Empty the contents of the wells and wash by adding 400 μL of wash solution to every well. Repeat the wash 4 more times for a total of 5 washes.
After the final wash, empty or aspirate the wells and firmly tap the plate on a lint free paper towel to remove any remaining wash buffer. Add 100 μL of blue Conjugate to each well, except the Blank.
Seal the plate and incubate at room temperature on a plate shaker for 30 minutes at ~500 rpm. Empty the contents of the wells and wash by adding 400 μL of wash solution to every well. Repeat the wash 4 more times for a total of 5 washes. After the final wash, empty or aspirate the wells and firmly tap […]
the plate on a lint free paper towel to remove any remaining wash buffer. Pipet 100 μL of Substrate Solution into each well. Incubate for 30 minutes at room temperature on a plate shaker at ~500 rpm.
Pipet 100 μL Stop Solution to each well. Blank the plate reader against the Blank wells, read the optical density at 450 nm. Calculate the average net Optical Density (OD) bound for each standard and sample by subtracting the average Blank OD from the average OD for each standard and sample.
Using linear graph paper, plot the Average Net OD for each standard versus Bax concentration in each standard. Approximate a straight line through the points. The concentration of Bax in the unknowns can be determined by interpolation. […]
Remove plate cover and empty the wells. […]
Incubate the microwell strips at room temperature (18° to 25°C) for about 15 minutes, if

Caspase-8 = Caspase-8 activation assay in MCF-7 cells; type: cell-based, human
Bcl-2 = Bcl-2 inhibition assay in MCF-7 cells; type: cell-based, human
Experimental: Additionally, the treatment led to a notable reduction in anti-apoptotic Bcl-2 expression levels, with a fold decrease of roughly 6 for compound 3e and 8 for compound 5a. Compounds 3e and 5a markedly elevated the Bax/Bcl-2 ratio compared to the control untreated cells. […]
4.2.8. Bcl-2 inhibition assay
Mix all reagents thoroughly without foaming before use. Wash the microwells twice with approximately 300 μL Wash Buffer per well with thorough aspiration of microwell contents between washes. Take caution not to scratch the surface of the microwells. After the last wash, empty the wells and tap microwell strips on absorbent pad or paper towel to remove excess Wash Buffer. Use the microwell strips immediately after washing or place upside down on a wet absorbent paper for not […]
longer than 15 minutes. […] Add 100 μL of Sample Diluent in duplicate to all standard wells and to the blank wells. Prepare standard (1:2 dilution) in duplicate ranging from 32 ng/mL to 0.5 ng/mL. Add 100 μL of Sample Diluent, in duplicate, to the blank wells. Add 80 μL of Sample Diluent, in duplicate, to the sample wells. Add 20 μL of each Sample, in duplicate, to the designated wells. Add 50 μL of diluted biotin-conjugate to all wells, including the blank wells. Cover with a plate cover and incubate at room temperature, on a microplate shaker at 100 rpm if available, for 2 hours. Remove plate cover and empty the wells. Wash microwell strips 3 times as described in step 2. Add 100 μL of diluted Streptavidin-HRP to all wells, including the blank wells. Cover with a plate cover and incubate at room temperature, on a microplate shaker at 100 rpm if available, for 1 hour. Remove plate cover and empty the wells. Wash microwell strips 3 times as described in step 2.
Proceed to the next step. Pipette 100 μl of mixed TMB Substrate Solution to all wells, including the blanks. Incubate the microwell strips at room temperature (18° to 25°C) for about 15 minutes, if available on a rotator set at 100 rpm. Avoid direct exposure to intense light. The point, at which the substrate reaction is stopped, is often determined by the ELISA reader. Many ELISA readers record absorbance only up to 2.0 O.D. Therefore, the color development within individual microwells must be watched by the person running the assay and the substrate reaction stopped before positive wells are no longer properly detectable. Stop the enzyme reaction by quickly pipetting 100 μL of Stop Solution into each well, including the blank wells. It is important that the Stop Solution is spread quickly and uniformly throughout the microwells to completely inactivate the enzyme. Results must be read immediately after the Stop Solution is added or within one hour if the microwell strips are stored at 2 - 8°C in the dark. Read absorbance of each microwell on a spectrophotometer using 450 nm as the primary wavelength.
4.3. Statistical analysis
Computerized Prism 5 program was used to statistically analyzed data using one-way ANOVA test followed by Tukey’s as post ANOVA for multiple comparison at P ≤.05. Data were presented as […]

Caspase-3 = Caspase-3 activation assay in MCF-7 cells; type: cell-based, human

| SMILES | IC50 [1] [nM] | melting point [°C] | viability at 96 h, 50 µM [2] [%] | IC50 [3] [nM] | IC50 [4] [nM] | GI50 ([5]; Homo sapiens) [nM] | IC50 [6] [nM] | GI50 [5] [nM] | Bax Conc. (Bax; treated at IC50 values) [pg/mL] | Bax Fold change (Bax; versus untreated control) | Caspase-8 Conc. (Caspase-8; treated at IC50 concentration) [ng/mL] | Caspase-8 Fold change (Caspase-8; versus untreated control) | Bcl-2 Conc. (Bcl-2; treated at IC50 values) [ng/mL] | Bcl-2 Fold reduction (Bcl-2; versus untreated control) | Caspase-3 Conc. (Caspase-3; treated at IC50 concentration) [pg/mL] | Caspase-3 Fold change (Caspase-3; versus untreated control) |
| --- | --- | --- | --- | --- | --- | --- | --- | --- | --- | --- | --- | --- | --- | --- | --- | --- |
| O=c1[nH]c2ccccc2c(O)c1/C=N/c1nc(-c2ccccc2)n[nH]1 [Compound 3a, (E) 4-hydroxy-3-(((3-phenyl-1H-1,2,4-triazol-5-yl)imino)methyl)quinolin-2(1H)-one] | 74 ± 7 | 310 to 312 | 89 | 72 ± 7 | 69 ± 6 | 72 | 74 ± 7 | – | – | – | – | – | – | – | – | – |
| Cc1ccc2[nH]c(=O)c(/C=N/c3nc(-c4ccccc4)n[nH]3)c(O)c2c1 [Compound 3b, (E) 4-hydroxy-6-methyl-3-(((3-phenyl-1H-1,2,4-triazol-5-yl)imino)methyl)quinolin-2(1H)-one] | 70 ± 6 | 325 to 327 | 90 | 70 ± 6 | 67 ± 6 | 70 | 71 ± 6 | – | – | – | – | – | – | – | – | – |
| COc1ccc2[nH]c(=O)c(/C=N/c3nc(-c4ccccc4)n[nH]3)c(O)c2c1 [Compound 3c, (E)-4-hydroxy-6-methoxy-3-(((3-phenyl-1H-1,2,4-triazol-5-yl)imino)methyl) quinolin-2(1H)-one] | 54 ± 5 | 330 to 332 | 87 | 50 ± 5 | 46 ± 4 | 51 | 52 ± 4 | – | – | – | – | – | – | – | – | – |
| Cn1c(=O)c(/C=N/c2nc(-c3ccccc3)n[nH]2)c(O)c2ccccc21 [Compound 3d, (E)-4-hydroxy-1-methyl-3-(((3-phenyl-1H-1,2,4-triazol-5-yl)imino)methyl)quinolin-2(1H)-one] | 76 ± 7 | 295 to 297 | 89 | 76 ± 7 | 74 ± 7 | 76 | 77 ± 7 | – | – | – | – | – | – | – | – | – |
| Cc1ccc2[nH]c(=O)c(/C=N/c3nc(-c4ccncc4)n[nH]3)c(O)c2c1 [Compound 3f, (E)-4-hydroxy-6-methyl-3-(((3-(pyridin-4-yl)-1H-1,2,4-triazol-5-yl)imino)methyl) quinolin-2(1H)-one] | 65 ± 6 | – | 90 | 62 ± 6 | 59 ± 5 | 63 | 64 ± 6 | – | – | – | – | – | – | – | – | – |
| COc1ccc2[nH]c(=O)c(/C=N/c3nc(-c4ccncc4)n[nH]3)c(O)c2c1 [Compound 3g, (E)-4-hydroxy-6-methoxy-3-(((3-(pyridin-4-yl)-1H-1,2,4-triazol-5-yl)imino)methyl) quinol-in-2(1H)-one] | 64 ± 6 | – | 89 | 64 ± 6 | 60 ± 6 | 82 | 66 ± 6 | 64 | – | – | – | – | – | – | – | – |
| Cn1c(=O)c(/C=N/c2nc(-c3ccncc3)n[nH]2)c(O)c2ccccc21 [Compound 3h, (E)-4-hydroxy-1-methyl-3-(((3-(pyridin-4-yl)-1H-1,2,4-triazol-5-yl)imino)methyl) quinolin-2(1H)-one] | 86 ± 8 | 310 to 312 | 85 | 82 ± 8 | 78 ± 7 | 82 | 82 ± 8 | – | – | – | – | – | – | – | – | – |
| COc1ccc2[nH]c(=O)c(C=Nc3ccc(NS(=O)(=O)c4ncccn4)cc3)c(O)c2c1 [Compound 5c, N-(4-(((4-hydroxy-6-methoxy-2-oxo-1,2-dihydroquinolin-3-yl)methylene)amino)phenyl)pyrimidine-2-sulfonamide] | 54 ± 5 | – | 86 | 53 ± 5 | 49 ± 4 | 53 | 55 ± 5 | – | – | – | – | – | – | – | – | – |
| CN[C@@H]1C[C@H]2O[C@@](C)([C@@H]1OC)n1c3ccccc3c3c4c(c5c6ccccc6n2c5c31)C(=O)NC4 [Staurosporine, reference compound] | – | – | – | – | – | – | – | – | 288 ± 2 | 32 | 1.60 ± 0.10 | 18 | 1.00 | 5 | 465 ± 4 | 7 |
